Like-named read-outs stand apart in the source and are kept apart here. Numbered stars: 1 amine (or outer) side, 2 acyl side, 3 side chain; on linkers, the order of the positions; unused ones are H or OH. Bridge positions count the residues as written; N and C are the ends. Square brackets hold non-standard residues; d marks the D form. Peptide text beside a SMILES is read from it. * marks the point of attachment. C20 diacid = O=C(O)CCCCCCCCCCCCCCCCCCC(=O)*; γGlu = O=C(O)[C@H](CCC(=O)[*:2])N[*:1]; Hyp = O=C(O)[C@@H]1C[C@@H](O)CN1; NMeI = CC[C@H](C)[C@H](NC)C(=O)O; Sar = CNCC(=O)O
Legend:
[1] = target: T1, human calcitonin receptor (hCTR2) (Homo sapiens, UniProt P30988); assay: hCTR2 assay: induction of cAMP (AlphaScreen cAMP Assay kit) in COS7 cells expressing hCTR2; type: cell-based
T1 construct: expressed in transfected cells
T1 sequence (P30988 25-474): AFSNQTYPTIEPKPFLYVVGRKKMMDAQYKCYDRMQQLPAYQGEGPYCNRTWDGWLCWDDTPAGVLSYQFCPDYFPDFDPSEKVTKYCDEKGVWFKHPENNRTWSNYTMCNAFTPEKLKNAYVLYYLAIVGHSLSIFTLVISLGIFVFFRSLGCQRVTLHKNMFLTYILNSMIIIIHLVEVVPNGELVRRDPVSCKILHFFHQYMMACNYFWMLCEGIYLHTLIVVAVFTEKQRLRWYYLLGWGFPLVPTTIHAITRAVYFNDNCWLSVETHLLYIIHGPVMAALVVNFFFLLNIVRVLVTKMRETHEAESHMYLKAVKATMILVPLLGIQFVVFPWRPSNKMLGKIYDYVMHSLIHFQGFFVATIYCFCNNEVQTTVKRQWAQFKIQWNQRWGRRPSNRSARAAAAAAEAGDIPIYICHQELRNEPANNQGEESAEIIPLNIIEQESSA
Outline: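 Peptide-induced cAMP in hCTR2-expressing COS7 cells, 15 min at 37° C with phosphodiesterase inhibitor IBMX (100 µM), detected by AlphaScreen; potency from 4PL curves.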

Sprague Dawley (SD) rats = assay: Acute food intake and body weight in normal Sprague Dawley rats; type: in vivo; details: vehicle-corrected, dose 30 nmol/kg sc, once; for Body weight loss (%) after 96 hours: mean ± SEM, n = 8
Outline: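 Normal male-unspecified SD rats, n = 8 per group, given a single s.c. peptide dose of 30 nmol/kg just before dark phase, with vehicle and positive control groups. Food intake recorded at 0, 4, 7, 10, 24, 48, 72 and 96 h; body weight daily; means ± SEM.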

[2] = cAMP induction in COS7 cells expressing hCTR2, average of a minimum of 3 determinations, read-out: hCTR2 EC50

Row | EC50 [1, 2] | Structure (SMILES) | Food intake inhibition (%) after 48 hours (Sprague Dawley (SD) rats) | Body weight loss (%) after 96 hours (Sprague Dawley (SD) rats) | EC50 [1]
1 | 0.049 nM | CC[C@H](C)[C@@H](C(=O)N[C@@H](CC(C)C)C(=O)N[C@@H](CO)C(=O)N[C@@H](CO)C(=O)N[C@H](C(=O)N[C@@H](CCC(=O)O)C(=O)N[C@H](C(=O)NCC(=O)N[C@@H](CO)C(=O)N[C@@H](CCC(=O)O)C(=O)N[C@H](C(=O)N1CCC[C@H]1C(N)=O)[C@@H](C)O)C(C)C)[C@@H](C)O)N(C)C(=O)[C@H](C)NC(=O)CN(C)C(=O)[C@H](Cc1ccccc1)NC(=O)[C@H](CO)NC(=O)[C@H](CO)NC(=O)[C@H](CCCNC(=N)N)NC(=O)[C@H](Cc1c[nH]cn1)NC(=O)[C@H](CC(C)C)NC(=O)[C@H](Cc1ccccc1)NC(=O)[C@H](CCC(=O)O)NC(=O)[C@H](C)NC(=O)[C@H](CC(C)C)NC(=O)[C@H](CCCNC(=N)N)NC(=O)[C@H](CCC(=O)O)NC(=O)[C@@H](NC(=O)[C@H](C)NC(=O)[C@@H]1CSSC[C@H](NC(=O)[C@H](CCCNC(=N)N)NC(=O)CC[C@H](NC(=O)CCCCCCCCCCCCCCCCCCC(=O)O)C(=O)O)C(=O)NCC(=O)N[C@@H]([C@@H](C)O)C(=O)N[C@@H](C)C(=O)N[C@@H]([C@@H](C)O)C(=O)N1)[C@@H](C)O [Compound 162, [19CD]-isoGlu-RC()GTATC()ATERLAEFLHRSSF-Gly(Me)-A-Ile(Me)-LSSTEVGSETP-NH2] ({C20 diacid-γGlu}-RCGTATCATERLAEFLHRSSF[Sar]A[NMeI]LSSTEVGSETP-NH2; disulfide 2-7) | 99% | 13 ± 2.2% | 
2 | 0.074 nM | CC[C@H](C)[C@@H](C(=O)N[C@@H](CC(C)C)C(=O)N[C@@H](CO)C(=O)N[C@@H](CO)C(=O)N[C@H](C(=O)N[C@@H](CCC(=O)O)C(=O)N[C@H](C(=O)NCC(=O)N[C@@H](CO)C(=O)N[C@@H](CCC(=O)O)C(=O)N[C@H](C(=O)N1C[C@H](O)C[C@H]1C(N)=O)[C@@H](C)O)C(C)C)[C@@H](C)O)N(C)C(=O)[C@H](C)NC(=O)CN(C)C(=O)[C@H](Cc1ccccc1)NC(=O)[C@H](CO)NC(=O)[C@H](CO)NC(=O)[C@H](CCCNC(=N)N)NC(=O)[C@H](Cc1c[nH]cn1)NC(=O)[C@H](CC(C)C)NC(=O)[C@H](Cc1ccccc1)NC(=O)[C@H](CCC(=O)O)NC(=O)[C@H](C)NC(=O)[C@H](CC(C)C)NC(=O)[C@H](CCCNC(=N)N)NC(=O)[C@H](CCC(=O)O)NC(=O)[C@@H](NC(=O)[C@H](C)NC(=O)[C@@H]1CSSC[C@H](NC(=O)[C@H](CCCNC(=N)N)NC(=O)CC[C@H](NC(=O)CCCCCCCCCCCCCCCCCCC(=O)O)C(=O)O)C(=O)NCC(=O)N[C@@H]([C@@H](C)O)C(=O)N[C@@H](C)C(=O)N[C@@H]([C@@H](C)O)C(=O)N1)[C@@H](C)O [Compound 166, [19CD]-isoGlu-RC()GTATC()ATERLAEFLHRSSF-Gly(Me)-A-Ile(Me)-LSSTEVGSET-Hyp-NH2] ({C20 diacid-γGlu}-RCGTATCATERLAEFLHRSSF[Sar]A[NMeI]LSSTEVGSET[Hyp]-NH2; disulfide 2-7) | 99% | 12 ± 1.6% | 
3 | 0.045 nM | CC[C@H](C)[C@@H](C(=O)N[C@@H](CC(C)C)C(=O)N[C@@H](CO)C(=O)N[C@@H](CO)C(=O)N[C@H](C(=O)N[C@@H](CC(=O)O)C(=O)N[C@H](C(=O)NCC(=O)N[C@@H](CO)C(=O)N[C@@H](CC(=O)O)C(=O)N[C@H](C(=O)N1CCC[C@H]1C(N)=O)[C@@H](C)O)C(C)C)[C@@H](C)O)N(C)C(=O)[C@H](C)NC(=O)CN(C)C(=O)[C@H](Cc1ccccc1)NC(=O)[C@H](CO)NC(=O)[C@H](CO)NC(=O)[C@H](CCCNC(=N)N)NC(=O)[C@H](Cc1c[nH]cn1)NC(=O)[C@H](CC(C)C)NC(=O)[C@H](Cc1ccccc1)NC(=O)[C@H](CCC(=O)O)NC(=O)[C@H](C)NC(=O)[C@H](CC(C)C)NC(=O)[C@H](CCCNC(=N)N)NC(=O)[C@H](CC(=O)O)NC(=O)[C@@H](NC(=O)[C@H](C)NC(=O)[C@@H]1CSSC[C@H](NC(=O)[C@H](CCCNC(=N)N)NC(=O)CC[C@H](NC(=O)CCCCCCCCCCCCCCCCCCC(=O)O)C(=O)O)C(=O)N2CCC[C@H]2C(=O)N[C@@H]([C@@H](C)O)C(=O)N[C@@H](C)C(=O)N[C@@H]([C@@H](C)O)C(=O)N1)[C@@H](C)O [Compound 172, [19CD]-isoGlu-RC()PTATC()ATDRLAEFLHRSSF-Gly(Me)-A-Ile(Me)-LSSTDVGSDTP-NH2] ({C20 diacid-γGlu}-RCPTATCATDRLAEFLHRSSF[Sar]A[NMeI]LSSTDVGSDTP-NH2; disulfide 2-7) | 99% | 13 ± 1.1% | 
4 |  | CC[C@H](C)[C@@H](C(=O)N[C@@H](CC(C)C)C(=O)N[C@@H](CO)C(=O)N[C@@H](CO)C(=O)N[C@H](C(=O)N[C@@H](CC(N)=O)C(=O)N[C@H](C(=O)NCC(=O)N[C@@H](CO)C(=O)N[C@@H](CC(N)=O)C(=O)N[C@H](C(=O)N1CCC[C@H]1C(N)=O)[C@@H](C)O)C(C)C)[C@@H](C)O)N(C)C(=O)[C@H](C)NC(=O)CN(C)C(=O)[C@H](Cc1ccccc1)NC(=O)[C@H](CC(N)=O)NC(=O)[C@H](CC(N)=O)NC(=O)[C@H](CO)NC(=O)[C@H](CO)NC(=O)[C@H](CCCNC(=N)N)NC(=O)[C@H](Cc1c[nH]cn1)NC(=O)[C@H](CC(C)C)NC(=O)[C@H](Cc1ccccc1)NC(=O)[C@H](CCC(=O)O)NC(=O)[C@H](C)NC(=O)[C@H](CC(C)C)NC(=O)[C@H](CCCNC(=N)N)NC(=O)[C@H](CCC(N)=O)NC(=O)[C@@H](NC(=O)[C@H](C)NC(=O)[C@@H]1CSSC[C@H](NC(=O)[C@H](Cc2c[nH]c3ccccc23)NC(=O)[C@H](CCCNC(=N)N)NC(=O)CC[C@H](NC(=O)CCCCCCCCCCCCCCCCCCC(=O)O)C(=O)O)C(=O)N[C@@H](CC(N)=O)C(=O)N[C@@H]([C@@H](C)O)C(=O)N[C@@H](C)C(=O)N[C@@H]([C@@H](C)O)C(=O)N1)[C@@H](C)O [Compound 174, [19CD]-isoGlu-RWC()NTATC()ATQRLAEFLHRSSNNF-Gly(Me)-A-Ile(Me)-LSSTNVGSNTP-NH2] ({C20 diacid-γGlu}-RWCNTATCATQRLAEFLHRSSNNF[Sar]A[NMeI]LSSTNVGSNTP-NH2; disulfide 3-8) | 99% | 8 ± 1.4% | 0.18 nM

— patent EP3046573B1, “AMYLIN ANALOGUES” (Zealand Pharma A/S, priority 2013, dated 2015)
